# From US20250114486A1, “MARKED FATTY ACID DERIVATIVE, PRECURSOR COMPOUND THEREOF, AND USE THEREOF IN CONTRAST AGENT” (BEIJING NORMAL UNIVERSITY, priority 2022, published 2025)
# Assay: In vivo biodistribution of radioactive ^99mTc complexes in female SD rats
# Set-up: species or system female Sprague-Dawley (SD) rats
# Conditions: for Biodistribution: Large Intestine / Biodistribution: Small Intestine / Biodistribution: Stomach: unit % ID; for absolute myocardial uptake peak value: peak at 60 min post-injection
# Experimental: Female SD rats (180-220 g, n=3) were fasted for 12 h before the experiment, and the purified radioactive 99mTc complexes 78-81 were prepared into physiological saline (containing 10% ethanol) solutions of about 250-350 μCi/mL. 200 μL of the above solution was injected into the tail vein of female SD rats, and the rats were killed by cervical dislocation at five time points, 15, 30, 60, 120 and 240 min after the tail vein injection. The blood, brain, heart, liver, spleen, lung, kidney, muscle, bone, large intestine, small intestine, stomach and tail were collected, weighed and counted, and the count distribution of each tissue and organ was calculated (unit: % ID/g, the unit of large intestine, small intestine and stomach is % ID), and the data are the mean±standard deviation of three mice in each phase. At the same time, 200 μL of the above solution was diluted to 20 mL, which was used as the % ID without deducting the tail count.
compound,measurement,setting,value
COC(C)(C)C[N+]#[C][99Tc-5]([C]#[N+]CC(C)(C)OC)([C]#[N+]CC(C)(C)OC)([C]#[N+]CC(C)(C)OC)([C]#[N+]CC(C)(C)OC)[C]#[N+]CC(C)(C)OCCSCCCCC(=O)O [^99mTc complex 78],absolute myocardial uptake values (comparison with complexes 79-81),,lower than the above values
same,heart-to-liver ratios (comparison with complexes 79-81),,lower than the above values
COC(C)(C)C[N+]#[C][99Tc-5]([C]#[N+]CC(C)(C)OC)([C]#[N+]CC(C)(C)OC)([C]#[N+]CC(C)(C)OC)([C]#[N+]CC(C)(C)OC)[C]#[N+]CC(C)(C)OCCCCCCSCCCCC(=O)O [^99mTc complex 81],myocardial absolute uptake peak value (assessment),,close to the corresponding value of myocardial perfusion imaging agent ^99mTc-MIBI
same,Biodistribution: Blood,15 min post-injection,0.018 ± 0.001 ID %/g
same,Biodistribution: Bone,15 min post-injection,0.24 ± 0.05 ID %/g
same,Biodistribution: Heart,15 min post-injection,3.37 ± 0.15 ID %/g
same,Biodistribution: Kidney,15 min post-injection,9.30 ± 0.20 ID %/g
same,Biodistribution: Liver,15 min post-injection,1.79 ± 0.26 ID %/g
same,Biodistribution: Lungs,15 min post-injection,0.86 ± 0.17 ID %/g
same,Biodistribution: Muscle,15 min post-injection,0.72 ± 0.11 ID %/g
same,Biodistribution: Spleen,15 min post-injection,0.70 ± 0.06 ID %/g
same,Heart-to-Blood ratio,15 min post-injection,192.24 ± 13.25
same,Heart-to-Liver ratio,15 min post-injection,1.93 ± 0.26
same,Heart-to-Lungs ratio,15 min post-injection,4.44 ± 0.26
same,absolute myocardial uptake value,15 min post-injection,3.37±0.15 % ID/g
same,Biodistribution: Large Intestine,15 min post-injection,6.53 ± 0.73 % ID
same,Biodistribution: Small Intestine,15 min post-injection,12.23 ± 2.35 % ID
same,Biodistribution: Stomach,15 min post-injection,1.05 ± 0.04 % ID
same,Biodistribution: Blood,30 min post-injection,0.016 ± 0.002 ID %/g
same,Biodistribution: Bone,30 min post-injection,0.15 ± 0.01 ID %/g
same,Biodistribution: Heart,30 min post-injection,3.45 ± 0.19 ID %/g
same,Biodistribution: Kidney,30 min post-injection,5.21 ± 1.54 ID %/g
same,Biodistribution: Liver,30 min post-injection,1.11± 0.16 ID %/g
same,Biodistribution: Lungs,30 min post-injection,0.575 ± 0.002 ID %/g
same,Biodistribution: Muscle,30 min post-injection,0.37 ± 0.06 ID %/g
same,Biodistribution: Spleen,30 min post-injection,0.88 ± 0.13 ID %/g
same,Heart-to-Blood ratio,30 min post-injection,220.61±45.73
same,Heart-to-Liver ratio,30 min post-injection,3.30 ± 0.42
same,Heart-to-Lungs ratio,30 min post-injection,6.00 ± 0.31
same,absolute myocardial uptake value,30 min post-injection,3.45±0.19 % ID/g
same,Biodistribution: Large Intestine,30 min post-injection,14.01 ± 1.87 % ID
same,Biodistribution: Small Intestine,30 min post-injection,17.82 ± 0.19 % ID
same,Biodistribution: Stomach,30 min post-injection,0.65 ± 0.11 % ID
same,Biodistribution: Blood,60 min post-injection,0.009 ± 0.001 ID %/g
same,Biodistribution: Bone,60 min post-injection,0.14 ± 0.01 ID %/g
same,Biodistribution: Heart,60 min post-injection,3.98 ± 0.25 ID %/g
same,Biodistribution: Kidney,60 min post-injection,4.90 ± 0.17 ID %/g
same,Biodistribution: Liver,60 min post-injection,0.60 ± 0.12 ID %/g
same,Biodistribution: Lungs,60 min post-injection,0.28 ± 0.07 ID %/g
same,Biodistribution: Muscle,60 min post-injection,0.77 ± 0.13 ID %/g
same,Biodistribution: Spleen,60 min post-injection,0.34 ± 0.04 ID %/g
same,Heart-to-Blood ratio,60 min post-injection,449.52±67.26
same,Heart-to-Lungs ratio,60 min post-injection,14.35 ± 2.38
same,absolute myocardial uptake value,60 min post-injection,3.98±0.25 % ID/g
same,Biodistribution: Large Intestine,60 min post-injection,6.44 ± 0.70 % ID
same,Biodistribution: Small Intestine,60 min post-injection,15.98 ± 1.55 % ID
same,Biodistribution: Stomach,60 min post-injection,0.46 ± 0.11 % ID
same,Biodistribution: Blood,120 min post-injection,0.020 ± 0.004 ID %/g
same,Biodistribution: Bone,120 min post-injection,0.12 ± 0.01 ID %/g
same,Biodistribution: Heart,120 min post-injection,2.83 ± 0.25 ID %/g
same,Biodistribution: Kidney,120 min post-injection,4.03 ± 0.24 ID %/g
same,Biodistribution: Liver,120 min post-injection,0.36 ± 0.05 ID %/g
same,Biodistribution: Lungs,120 min post-injection,0.27 ± 0.03 ID %/g
same,Biodistribution: Muscle,120 min post-injection,0.60 ± 0.11 ID %/g
same,Biodistribution: Spleen,120 min post-injection,0.25 ± 0.04 ID %/g
same,Heart-to-Blood ratio,120 min post-injection,146.14±22.27
same,Heart-to-Liver ratio,120 min post-injection,7.91 ± 0.50
same,Heart-to-Lungs ratio,120 min post-injection,10.43 ± 0.62
same,absolute myocardial uptake value,120 min post-injection,2.83±0.25 % ID/g
same,Biodistribution: Large Intestine,120 min post-injection,19.30 ± 1.11 % ID
same,Biodistribution: Small Intestine,120 min post-injection,24.46 ± 3.26 % ID
same,Biodistribution: Stomach,120 min post-injection,0.92 ± 0.03 % ID
same,Biodistribution: Blood,240 min post-injection,0.016 ± 0.002 ID %/g
same,Biodistribution: Bone,240 min post-injection,0.036 ± 0.005 ID %/g
same,Biodistribution: Heart,240 min post-injection,2.29 ± 0.05 ID %/g
same,Biodistribution: Kidney,240 min post-injection,2.07 ± 0.17 ID %/g
same,Biodistribution: Liver,240 min post-injection,0.17 ± 0.03 ID %/g
same,Biodistribution: Lungs,240 min post-injection,0.15 ± 0.02 ID %/g
same,Biodistribution: Muscle,240 min post-injection,0.48 ± 0.06 ID %/g
same,Biodistribution: Spleen,240 min post-injection,0.12 ± 0.02 ID %/g
same,Heart-to-Blood ratio,240 min post-injection,143.42±25.82
same,Heart-to-Liver ratio,240 min post-injection,11.82 ± 1.15
same,Heart-to-Lungs ratio,240 min post-injection,15.97 ± 2.41
same,absolute myocardial uptake value,240 min post-injection,2.29±0.05 % ID/g
same,Biodistribution: Large Intestine,240 min post-injection,27.81 ± 4.20 % ID
same,Biodistribution: Small Intestine,240 min post-injection,13.00 ± 1.55 % ID
same,Biodistribution: Stomach,240 min post-injection,0.30 ± 0.08 % ID
same,absolute myocardial uptake peak value,,3.98±0.25 % ID/g
COC(C)(C)C[N+]#[C][99Tc-5]([C]#[N+]CC(C)(C)OC)([C]#[N+]CC(C)(C)OC)([C]#[N+]CC(C)(C)OC)([C]#[N+]CC(C)(C)OC)[C]#[N+]CC(C)(C)OCCCCSCCCCC(=O)O [^99mTc complex 79],Biodistribution: Blood,15 min post-injection,0.11 ± 0.02 ID %/g
same,Biodistribution: Bone,15 min post-injection,0.13 ± 0.02 ID %/g
same,Biodistribution: Brain,15 min post-injection,0.021 ± 0.005 ID %/g
same,Biodistribution: Heart,15 min post-injection,1.50 ± 0.27 ID %/g
same,Biodistribution: Kidney,15 min post-injection,4.87 ± 0.72 ID %/g
same,Biodistribution: Liver,15 min post-injection,1.28 ± 0.19 ID %/g
same,Biodistribution: Lungs,15 min post-injection,0.30 ± 0.06 ID %/g
same,Biodistribution: Muscle,15 min post-injection,0.24 ± 0.06 ID %/g
same,Biodistribution: Spleen,15 min post-injection,0.52 ± 0.10 ID %/g
same,Heart-to-Blood ratio,15 min post-injection,13.99 ± 3.55
same,Heart-to-Liver ratio,15 min post-injection,1.22 ± 0.33
same,Heart-to-Lungs ratio,15 min post-injection,5.16 ± 0.69
same,absolute myocardial uptake value,15 min post-injection,1.50±0.27 % ID/g
same,Biodistribution: Large Intestine,15 min post-injection,0.76 ± 0.20 % ID
same,Biodistribution: Small Intestine,15 min post-injection,14.70 ± 0.78 % ID
same,Biodistribution: Stomach,15 min post-injection,0.51 ± 0.05 % ID
same,Biodistribution: Blood,30 min post-injection,0.09 ± 0.01 ID %/g
same,Biodistribution: Bone,30 min post-injection,0.09 ± 0.01 ID %/g
same,Biodistribution: Brain,30 min post-injection,0.012 ± 0.005 ID %/g
same,Biodistribution: Heart,30 min post-injection,2.24 ± 0.31 ID %/g
same,Biodistribution: Kidney,30 min post-injection,3.37 ± 0.38 ID %/g
same,Biodistribution: Liver,30 min post-injection,1.38 ± 0.16 ID %/g
same,Biodistribution: Lungs,30 min post-injection,0.27 ± 0.03 ID %/g
same,Biodistribution: Muscle,30 min post-injection,0.81 ± 0.14 ID %/g
same,Biodistribution: Spleen,30 min post-injection,0.16 ± 0.01 ID %/g
same,Heart-to-Blood ratio,30 min post-injection,25.88±5.10
same,Heart-to-Liver ratio,30 min post-injection,1.63 ± 0.27
same,absolute myocardial uptake value,30 min post-injection,2.24±0.31 % ID/g
same,Biodistribution: Large Intestine,30 min post-injection,12.06 ± 3.78 % ID
same,Biodistribution: Small Intestine,30 min post-injection,25.98 ± 3.13 % ID
same,Biodistribution: Stomach,30 min post-injection,0.47 ± 0.15 % ID
same,Biodistribution: Blood,60 min post-injection,0.04 ± 0.01 ID %/g
same,Biodistribution: Bone,60 min post-injection,0.05 ± 0.01 ID %/g
same,Biodistribution: Brain,60 min post-injection,0.009 ± 0.001 ID %/g
same,Biodistribution: Heart,60 min post-injection,2.45 ± 0.35 ID %/g
same,Biodistribution: Kidney,60 min post-injection,1.65 ± 0.53 ID %/g
same,Biodistribution: Liver,60 min post-injection,0.66 ± 0.12 ID %/g
same,Biodistribution: Lungs,60 min post-injection,0.14 ± 0.02 ID %/g
same,Biodistribution: Muscle,60 min post-injection,0.47 ± 0.10 ID %/g
same,Biodistribution: Spleen,60 min post-injection,0.09 ± 0.02 ID %/g
same,Heart-to-Blood ratio,60 min post-injection,56.19±13.56
same,Heart-to-Liver ratio,60 min post-injection,3.82±1.21
same,Heart-to-Lungs ratio,60 min post-injection,17.12±3.09
same,absolute myocardial uptake value,60 min post-injection,2.45±0.35 % ID/g
same,Biodistribution: Large Intestine,60 min post-injection,16.70 ± 2.72 % ID
same,Biodistribution: Small Intestine,60 min post-injection,22.54 ± 5.67 % ID
same,Biodistribution: Stomach,60 min post-injection,0.19 ± 0.06 % ID
same,Biodistribution: Blood,120 min post-injection,0.012 ± 0.002 ID %/g
same,Biodistribution: Bone,120 min post-injection,0.04 ± 0.01 ID %/g
same,Biodistribution: Brain,120 min post-injection,0.009 ± 0.002 ID %/g
same,Biodistribution: Heart,120 min post-injection,1.54 ± 0.45 ID %/g
same,Biodistribution: Kidney,120 min post-injection,0.65 ± 0.14 ID %/g
same,Biodistribution: Liver,120 min post-injection,0.28 ± 0.01 ID %/g
same,Biodistribution: Lungs,120 min post-injection,0.11 ± 0.03 ID %/g
same,Biodistribution: Muscle,120 min post-injection,0.21 ± 0.05 ID %/g
same,Biodistribution: Spleen,120 min post-injection,0.05 ± 0.01 ID %/g
same,Heart-to-Blood ratio,120 min post-injection,118.25±44.79
same,Heart-to-Liver ratio,120 min post-injection,5.55±1.38
same,Heart-to-Lungs ratio,120 min post-injection,15.05±5.27
same,absolute myocardial uptake value,120 min post-injection,1.54 0.45 % ID/g
same,Biodistribution: Large Intestine,120 min post-injection,27.61 ± 2.20 % ID
same,Biodistribution: Small Intestine,120 min post-injection,5.24 ± 0.78 % ID
same,Biodistribution: Stomach,120 min post-injection,0.22 ± 0.03 % ID
same,Biodistribution: Blood,240 min post-injection,0.025 ± 0.003 ID %/g
same,Biodistribution: Bone,240 min post-injection,0.13 ± 0.03 ID %/g
same,Biodistribution: Brain,240 min post-injection,0.007 ± 0.002 ID %/g
same,Biodistribution: Heart,240 min post-injection,0.60 ± 0.04 ID %/g
same,Biodistribution: Kidney,240 min post-injection,0.22 ± 0.02 ID %/g
same,Biodistribution: Liver,240 min post-injection,0.24 ± 0.01 ID %/g
same,Biodistribution: Lungs,240 min post-injection,0.09 ± 0.01 ID %/g
same,Biodistribution: Muscle,240 min post-injection,0.27 ± 0.02 ID %/g
same,Biodistribution: Spleen,240 min post-injection,0.11 ± 0.01 ID %/g
same,Heart-to-Blood ratio,240 min post-injection,24.36±1.72
same,Heart-to-Liver ratio,240 min post-injection,2.45 ± 0.18
same,Heart-to-Lungs ratio,240 min post-injection,6.66±0.60
same,absolute myocardial uptake value,240 min post-injection,0.60±0.04 % ID/g
same,Biodistribution: Large Intestine,240 min post-injection,33.40 ± 4.10 % ID
same,Biodistribution: Small Intestine,240 min post-injection,4.53 ± 0.88 % ID
same,Biodistribution: Stomach,240 min post-injection,0.20 ± 0.02 % ID
same,absolute myocardial uptake peak value,,2.45±0.35 % ID/g
